Patent US4599327A, “Dibenzo[bd]pyran derivatives, process for the preparation thereof and pharmaceutical compositions containing same” (priority 1982, dated 1986)
Counter-ions that a name gives are not always drawn. Like-named read-outs stand apart in the source and are kept apart here.

Key:
[1] = literature, cited from earlier work
[2] = cited from earlier work
[3] = literature, Wilson et al.; cited from earlier work
[4] = p.o.; U.S. Pat. No. 3,507,885 compound; cited from earlier work
[5] = hot-plate test using rats (analgesic activity); format: in vivo; details: for analgesic activity: suspended with 1% methyl cellulose
[6] = narcosis potentiating activity (35 mg/kg of phenobarbital in rats); format: in vivo; details: i.v.; narcosis time of 35 mg/kg of phenobarbital in rats lengthened by ten times (route printed for CKN-30 complex and morphine)
Description: The narcosis time of 35 mg/kg of phenobarbital in rats is lengthened by ten times by using 0.1-0.25 mg/kg i.v. CKN-30 complex or 0.05 mg/kg of CKN-49 complex. In order to achieve similar activity more than 1 mg/kg of i.v. morphine was needed.

[7] = Wilson et al., J. Med. Chem. 19, 1165 (1976)

SMILES: CN1CC[C@]23c4c5ccc(O)c4O[C@H]2[C@@H](O)C=C[C@H]3[C@H]1C5 [morphine. HCl]
- ED50 (hot plate) [1, 7]: 1.2 mg/kg

SMILES: CCCCCc1cc(O)c2c(c1)OC(C)(C)C1CCC(O)CC21 (stereo not shown)
- ED50 (hot plate) [1, 7]: 1.6 mg/kg
- ED50 (tail-flick) ([2]; literature, B. R. Martin et al. (1977), levorotatory form): 1.71 mg/kg

SMILES: CCCCCc1cc(O)c2c(c1)OC(C)(C)[C@@H]1CC[C@@H](O)C[C@@H]21 (relative stereo) [9-nor-9β-hydroxy-hexahydrocannabinol]
- ED50 (hot plate) [1, 7]: 2.9 mg/kg
- ED50 (hot plate) ([1]; aqueous suspension containing Emulphor emulsifying agent and ethanol): 2.9 mg/kg
- analgesic strength [3]: as strong as morphine

SMILES: CCCCCCC(C)(C)c1cc(O)c2c(c1)OC(C)(C)[C@@H]1CC[C@@H](O)C[C@@H]21 (relative stereo) [(±)-1,9β-dihydroxy-6,6-dimethyl-3-(1,1-dimethyl-1-heptyl)-6aβ,7,8,9,10,10aα-hexahydro-6H-dibenzo(bd)-pyrane]
- ED50 (tail-flick) ([2]; p.o., U.S. Pat. No. 3,507,885 compound): 0.1 to 5 mg/kg
- ED50 (mouse writhing) [4]: 1.25 mg/kg

SMILES: COCCCC(C)c1cc(O)c2c(c1)OC(C)(C)[C@@H]1CC[C@@H](O)C[C@@H]21 (relative stereo) [CKN-30, (±)-1,9β-dihydroxy-6aβ,7,8,9,10,10aα-hexahydro-6,6-dimethyl-3-[(2RS)-5-methoxy-2-pentyl]-6H-dibenzo[bd]pyrane]
- analgesic activity [5]: moderate analgesic activity

SMILES: CN1CC[C@]23c4c5ccc(O)c4O[C@H]2[C@@H](O)C=C[C@H]3[C@H]1C5 [morphine]
- ED50 ([5]; i.v.): 3.6 mg/kg
- ED50 ([5]; s.c.): 4.6 mg/kg
- dose lengthening the narcosis time by ten times [6]: more than 1 mg/kg

SMILES: CCOCCCC(C)c1cc(O)c2c(c1)OC(C)(C)[C@@H]1CC[C@@H](O)C[C@@H]21 (relative stereo) [CKN-49, (±)-1,9β-dihydroxy-6aβ,7,8,9,10,10aα-hexahydro-6,6-dimethyl-3-[(2RS)-5-ethoxy-2-pentyl]-6H-dibenzo[bd]pyrane]
- analgesic activity [5]: moderate analgesic activity
